The record followed here is publication PMC10890502, “Prevention of Protease-Induced Degradation of Desmoplakin via Small Molecule Binding” (Journal of Personalized Medicine, 2024).

What all share (experiment): biochemical
In experiment [1] the target is T1, sDSP (DSP178–627) (Homo sapiens, UniProt P15924, S442F).
T1 construct: gene DSP; N-terminal spectrin repeat/SH3 fragment, residues 178-627; pGEX-1 GST fusion cut with thrombin, E. coli BL21(DE3); fluorescein-5-maleimide label on exposed cysteines (C405, C524)
T1 sequence (P15924 178-627 S442F): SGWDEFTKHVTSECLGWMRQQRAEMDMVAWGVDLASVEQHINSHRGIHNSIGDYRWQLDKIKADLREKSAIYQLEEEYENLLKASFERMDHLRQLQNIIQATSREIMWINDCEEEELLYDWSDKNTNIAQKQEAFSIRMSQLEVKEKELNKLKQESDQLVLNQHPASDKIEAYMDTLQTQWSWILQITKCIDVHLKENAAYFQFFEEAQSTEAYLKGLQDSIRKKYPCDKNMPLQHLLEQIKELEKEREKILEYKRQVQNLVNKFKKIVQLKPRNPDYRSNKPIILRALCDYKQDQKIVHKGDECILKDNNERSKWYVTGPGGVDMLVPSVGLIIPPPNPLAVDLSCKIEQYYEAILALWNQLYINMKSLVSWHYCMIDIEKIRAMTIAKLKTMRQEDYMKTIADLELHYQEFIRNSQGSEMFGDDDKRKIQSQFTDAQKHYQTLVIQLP
Further details: FITC-sDSP S442F degradation by trypsin (1:50), fluorescence polarization after 60 min, per cent of protease-only control. The conditions noted are these: degradation rate of DSP S442F by trypsin; read-out: % of control remaining. On the procedure: Fluorescence Polarization (FP) assays were conducted in […] format using a BioTek Synergy H4 plate reader with polarization capacity (Agilent; Savage, MD, USA). All samples were run at 25 °C using PBS pH 7.4, 1 mM DTT, 10 mM CaCl2, 5% DMSO, and […] FITC- DSP178–627, with 500 μM of each drug. Trypsin, chymotrypsin, or calpain at either 1:50, 1:50, or 1:20 concentration was added directly before data collection with an average void time of 2 min. Control experiments in each plate were conducted in triplicate and consisted of DSP178–627 + DMSO + protease as a positive control and DSP178–627 + DMSO + [compound left out] + protease as a negative control. Only plates that had functional positive and negative controls were used in data analysis. Samples were excited at 485 nm, and polarization was monitored at 528 nm. Data were collected at 5 min increments for 1–3 h. A mutation that partially occludes the DSP calpain cleavage site rescues DSP protein levels. We next assessed whether protease-dependent cleavage can also be blocked by small molecules. We screened 2496 FDA-approved drugs for their ability to prevent trypsin-dependent cleavage of sDSP S442F in our FP assay (Figure 3A). […] No change in fluorescence polarization after an hour is indicative of 0% protein degradation rate, as occurs in the [compound left out] positive control. […] (A) sDSP S442F degradation in the presence of trypsin plus 2496 compounds from the Cayman chemical “FDA library”. A degradation rate of 100% indicates the same desmoplakin degradation rate with and without the addition of 500 μM drug while a 0% rate indicates no degradation, as judged by fluorescent polarization values after 1 h. A trypsin-only control and a trypsin + [compound left out] control is indicated. Protection (red lines) was arbitrarily set between 33% and −10%. […] (B) Example of how the data in A was generated.

In experiment [2] the target is T2, sDSP (DSP178–627) (Homo sapiens, UniProt P15924).
T2 construct: gene DSP; N-terminal spectrin repeat/SH3 fragment, residues 178-627; pGEX-1 GST fusion cut with thrombin, E. coli BL21(DE3); fluorescein-5-maleimide label on exposed cysteines (C405, C524)
T2 sequence (P15924 178-627): T1 sequence (P15924 178-627 S442F) with F265S
Set-up: FITC-sDSP degradation by calpain (1:20), fluorescence polarization after 60 min, per cent of calpain-only control. Particulars: degradation rate of DSP WT by calpain; read-out: % of control remaining. On the procedure:
(§1) Fluorescence Polarization (FP) assays were conducted in […] format using a BioTek Synergy H4 plate reader with polarization capacity (Agilent; Savage, MD, USA). All samples were run at 25 °C using PBS pH 7.4, 1 mM DTT, 10 mM CaCl2, 5% DMSO, and […] FITC- DSP178–627, with 500 μM of each drug. Trypsin, chymotrypsin, or calpain at either 1:50, 1:50, or 1:20 concentration was added directly before data collection with an average void time of 2 min. Control experiments in each plate were conducted in triplicate and consisted of DSP178–627 + DMSO + protease as a positive control and DSP178–627 + DMSO + [compound left out] + protease as a negative control. Only plates that had functional positive and negative controls were used in data analysis. Samples were excited at 485 nm, and polarization was monitored at 528 nm. Data were collected at 5 min increments for 1–3 h. […] Therefore, we next tested whether these 62 compounds also prevent wildtype and variant DSP degradation in the presence of calpain. […] (A) Normalized fluorescent polarization of WT and sDSP variants in the presence of a 1:20 ratio of calpain plus 500 μM drug, as compared to calpain alone (black) (B) Identity and chemical structure of the six best-performing compounds.

Experiment [3] addresses T3, sDSP (DSP178–627) (Homo sapiens, UniProt P15924, R451G).
T3 construct: gene DSP; N-terminal spectrin repeat/SH3 fragment, residues 178-627; pGEX-1 GST fusion cut with thrombin, E. coli BL21(DE3); fluorescein-5-maleimide label on exposed cysteines (C405, C524)
T3 sequence (P15924 178-627 R451G): T1 sequence (P15924 178-627 S442F) with F265S, R274G
Further details: FITC-sDSP degradation by calpain (1:20), fluorescence polarization after 60 min, per cent of calpain-only control. The conditions noted are these: degradation rate of DSP R451G by calpain; read-out: % of control remaining. On the procedure:
as §1

The target in experiment [4] is T1, sDSP (DSP178–627). Set-up: FITC-sDSP degradation by calpain (1:20), fluorescence polarization after 60 min, per cent of calpain-only control. The conditions noted are these: degradation rate of DSP S442F by calpain; read-out: % of control remaining. On the procedure: as §1
Experiment [5] addresses T4, sDSP S507F (Homo sapiens, UniProt P15924, S507F).
T4 construct: gene DSP; N-terminal fragment, residues 178-627
Set-up: FITC-sDSP degradation by calpain (1:20), fluorescence polarization after 60 min, per cent of calpain-only control. Particulars: degradation rate of DSP S507F by calpain; read-out: % of control remaining. The protocol:
as §1

Numbering of substitutions follows the chain as printed. Where a name gives a salt, the structure may show the parent alone. Read-outs that look alike come from different tables or passages of the source.

T4 sequence (P15924 whole entry S507F, the tested form may be a part): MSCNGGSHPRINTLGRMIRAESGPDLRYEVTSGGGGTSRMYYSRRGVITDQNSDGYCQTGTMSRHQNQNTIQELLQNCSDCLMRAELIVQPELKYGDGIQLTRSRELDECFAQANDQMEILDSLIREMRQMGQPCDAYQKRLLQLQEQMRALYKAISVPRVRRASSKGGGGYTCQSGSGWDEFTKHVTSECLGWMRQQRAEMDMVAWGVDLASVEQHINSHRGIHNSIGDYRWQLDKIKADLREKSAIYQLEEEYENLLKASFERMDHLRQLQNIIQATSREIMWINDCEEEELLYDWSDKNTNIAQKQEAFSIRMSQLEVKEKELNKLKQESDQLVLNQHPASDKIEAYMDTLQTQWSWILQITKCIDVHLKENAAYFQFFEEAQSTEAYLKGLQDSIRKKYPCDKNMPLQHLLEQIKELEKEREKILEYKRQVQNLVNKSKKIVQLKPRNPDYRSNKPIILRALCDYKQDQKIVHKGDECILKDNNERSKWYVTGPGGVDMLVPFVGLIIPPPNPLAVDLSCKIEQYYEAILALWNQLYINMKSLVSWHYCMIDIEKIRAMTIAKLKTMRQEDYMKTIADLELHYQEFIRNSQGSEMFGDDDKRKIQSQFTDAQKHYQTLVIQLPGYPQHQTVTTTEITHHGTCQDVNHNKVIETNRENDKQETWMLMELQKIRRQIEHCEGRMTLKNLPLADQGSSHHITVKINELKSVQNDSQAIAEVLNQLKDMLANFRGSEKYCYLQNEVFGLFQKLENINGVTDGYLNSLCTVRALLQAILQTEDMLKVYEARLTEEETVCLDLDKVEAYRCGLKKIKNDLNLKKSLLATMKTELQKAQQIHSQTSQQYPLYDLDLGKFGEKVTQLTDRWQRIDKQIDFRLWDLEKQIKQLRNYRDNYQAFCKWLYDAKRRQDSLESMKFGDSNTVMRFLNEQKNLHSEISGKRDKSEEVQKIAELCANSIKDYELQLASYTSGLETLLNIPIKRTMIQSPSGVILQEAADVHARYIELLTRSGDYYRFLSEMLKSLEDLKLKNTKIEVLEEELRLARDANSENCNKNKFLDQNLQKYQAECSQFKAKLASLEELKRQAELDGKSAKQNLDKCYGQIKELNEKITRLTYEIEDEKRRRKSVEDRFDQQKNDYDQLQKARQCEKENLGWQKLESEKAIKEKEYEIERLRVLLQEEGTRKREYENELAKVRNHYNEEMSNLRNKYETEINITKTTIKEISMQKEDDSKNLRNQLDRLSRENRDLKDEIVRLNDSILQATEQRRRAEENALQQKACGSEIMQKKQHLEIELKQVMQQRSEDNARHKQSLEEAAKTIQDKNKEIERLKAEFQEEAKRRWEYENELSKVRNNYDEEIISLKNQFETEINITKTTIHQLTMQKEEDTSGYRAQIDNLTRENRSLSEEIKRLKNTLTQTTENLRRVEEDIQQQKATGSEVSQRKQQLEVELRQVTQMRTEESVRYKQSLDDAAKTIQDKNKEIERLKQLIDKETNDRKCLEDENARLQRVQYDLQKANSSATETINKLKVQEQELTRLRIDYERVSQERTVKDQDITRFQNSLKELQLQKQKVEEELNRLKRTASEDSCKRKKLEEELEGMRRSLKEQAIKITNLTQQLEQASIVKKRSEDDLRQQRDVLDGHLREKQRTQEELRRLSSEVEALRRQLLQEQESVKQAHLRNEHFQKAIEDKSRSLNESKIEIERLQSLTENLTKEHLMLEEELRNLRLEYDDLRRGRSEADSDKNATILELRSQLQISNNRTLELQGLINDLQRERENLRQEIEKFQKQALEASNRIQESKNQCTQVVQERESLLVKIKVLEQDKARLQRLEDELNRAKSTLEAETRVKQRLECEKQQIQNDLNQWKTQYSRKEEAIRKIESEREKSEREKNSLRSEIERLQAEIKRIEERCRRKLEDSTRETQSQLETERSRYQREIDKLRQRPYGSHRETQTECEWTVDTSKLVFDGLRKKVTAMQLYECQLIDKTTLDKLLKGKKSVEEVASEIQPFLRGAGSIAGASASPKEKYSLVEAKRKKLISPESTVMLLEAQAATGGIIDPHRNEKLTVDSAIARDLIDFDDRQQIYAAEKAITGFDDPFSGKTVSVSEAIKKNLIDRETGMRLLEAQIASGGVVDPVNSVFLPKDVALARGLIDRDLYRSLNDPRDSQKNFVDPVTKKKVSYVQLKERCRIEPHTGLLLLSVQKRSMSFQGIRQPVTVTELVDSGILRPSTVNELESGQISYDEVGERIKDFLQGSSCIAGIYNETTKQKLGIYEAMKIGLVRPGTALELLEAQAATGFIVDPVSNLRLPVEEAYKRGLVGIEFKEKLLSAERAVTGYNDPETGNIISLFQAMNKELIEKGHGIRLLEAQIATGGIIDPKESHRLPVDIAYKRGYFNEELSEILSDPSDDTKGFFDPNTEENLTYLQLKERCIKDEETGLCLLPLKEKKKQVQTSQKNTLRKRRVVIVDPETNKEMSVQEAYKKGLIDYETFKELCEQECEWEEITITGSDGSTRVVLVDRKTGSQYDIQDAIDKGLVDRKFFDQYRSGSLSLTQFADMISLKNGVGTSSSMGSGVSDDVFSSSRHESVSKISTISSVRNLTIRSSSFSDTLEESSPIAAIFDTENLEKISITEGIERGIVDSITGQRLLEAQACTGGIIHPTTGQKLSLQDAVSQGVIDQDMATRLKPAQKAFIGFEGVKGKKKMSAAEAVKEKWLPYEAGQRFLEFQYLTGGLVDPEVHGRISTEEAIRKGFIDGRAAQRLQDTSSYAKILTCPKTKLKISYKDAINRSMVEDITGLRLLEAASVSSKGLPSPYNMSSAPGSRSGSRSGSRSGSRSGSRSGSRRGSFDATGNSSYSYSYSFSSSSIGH

Consider `C=C(c1ccc(C(=O)O)cc1)c1cc2c(cc1C)C(C)(C)CCC2(C)C` [Bexarotene], for which the remaining activity at 500 µM in experiment [1] was 26%; in experiment [2], 81%; in experiment [3], 39%; in experiment [4], 84%; in experiment [5], 4%.
`NC1(Cc2ccc(Cl)cc2)CCN(c2ncnc3[nH]ccc23)CC1` [CCT128930]: the remaining activity at 500 µM in experiment [1] came to 20%; in experiment [2], 54%; in experiment [3], 32%; in experiment [4] it was 86%; in experiment [5], 20%.
Take `COc1ccc(-c2cc(=O)c3c(O)cc(O)cc3o2)cc1O` [Diosmetin]: the remaining activity at 500 µM in experiment [1] amounted to 18%; in experiment [2], 84%; in experiment [3], 30%; in experiment [4], 73%; in experiment [5] it was 0%.
On the same counts, the results for `CC/C=C\C/C=C\C/C=C\C/C=C\C/C=C\C/C=C\CCC(=O)O` [Docosahexaenoic Acid] are 32%, -12%, 118%, -19% and 104%.
The matching figures for `CCCCc1oc2ccc(NS(C)(=O)=O)cc2c1C(=O)c1ccc(OCCCN(CCCC)CCCC)cc1` [Dronedarone HCl]: 23%, 143%, 20%, 0% and 25%.
The matching figures for `CCCCCCCCc1ccc(CCC(N)(CO)CO)cc1` [Fingolimod]: -1%, 35%, -13%, 70% and 32%.
For `CNC(=O)c1c(F)cccc1Nc1nc(Nc2cc3c(cc2OC)CCN3C(=O)CN(C)C)nc2[nH]ccc12` [GSK1838705A], the remaining activity at 500 µM in experiment [1] was 32%; in experiment [2], 35%; in experiment [3], 34%; in experiment [4], 23%; in experiment [5], 24%.
On the same counts, the results for `Cc1ccc(NC(=O)c2ccc(CN3CCN(C)CC3)cc2)cc1Nc1nccc(-c2cccnc2)n1` [Imatinib] are -3%, -6%, 4%, 62% and 108%.
The matching figures for `Cn1cc(-c2ccc(F)c(C(F)(F)F)c2)nc1C1CCN(c2ncnc3[nH]ncc23)CC1` [LY2584702]: 18%, 67%, 15%, -40% and 84%.
On the same counts, the results for `O=C(NC1CCN(CCCCC2(C(=O)NCC(F)(F)F)c3ccccc3-c3ccccc32)CC1)c1ccccc1-c1ccc(C(F)(F)F)cc1` [Lomitapide] are 32%, 118%, 40%, 62% and 4%.
On to `CN1CCN(C2=Nc3ccccc3Oc3ccc(Cl)cc32)CC1` [Loxipine Succinate], for which the remaining activity at 500 µM is 1% in experiment [1]; -8% in experiment [2]; -41% in experiment [3]; 101% in experiment [4]; 107% in experiment [5].
In the case of `CCN(CC)CC#CCOC(=O)C(O)(c1ccccc1)C1CCCCC1` (stereo not shown) [Oxybutynin chloride], the remaining activity at 500 µM in experiment [1] was 24%; in experiment [2] it was 91%; in experiment [3], 31%; in experiment [4], -5%; in experiment [5] it was 77%.
On the same counts, the results for `Fc1ccc([C@@H]2CCNC[C@H]2COc2ccc3c(c2)OCO3)cc1` [Paraxetine] are 20%, -8%, 26%, -3% and 133%.
In the case of `CCCCCCCCCCCCOS(=O)(=O)O` [SDS], the remaining activity at 500 µM is 18% in experiment [1]; 24% in experiment [2]; -20% in experiment [3]; 21% in experiment [4]; -30% in experiment [5].
